From patent publication US10738024B2, “Compounds for treatment of angiogenesis-mediated diseases” (Indiana University Research and Technology Corporation, priority 2013, dated 2020)

How the values were obtained:
[1] = test system: Y-79 retinoblastoma cells; assay: ALAMARBLUE proliferation assay in Y-79 retinoblastoma cells; type: cell-based; details: 50% growth inhibitory concentration, 48 hours
Protocol: (§1) For proliferation assays, cells (2500 per well) were seeded in a 96-well clear bottom black polystyrene plate in a total volume of 100 μL. HUVECs and HRECs were grown in EGM-2 and CSC+ media respectively, while 92-1 and Y79 cells were maintained in RPMI+10% FBS, penicillin/streptomycin and RB medium (IMDM+10% FBS+penicillin/streptomycin+10 μg/mL insulin+55 μM β-mercaptoethanol) respectively. After 24 hours of incubation of the plate at 37° C., the compounds were dissolved in DMSO and added in the concentration range of 500 μM to 0.5 nM. The plate was then incubated at 37° C. and 5% CO2 conditions for 48 hours before adding 11.1 μL of alamar blue reagent for each well. Four hours after the addition of ALAMARBLUE® reagent, fluorescence readings with excitation and emission wavelengths of 560 nm and 590 nm respectively were taken and the data was analyzed in GraphPad Prism software. The dose response curves were generated and the GI50 values were calculated using the equation: Y=100/(1+10^(X−Log GI50)) (Table 1).

HRECs = assay: ALAMARBLUE proliferation assay in HRECs; type: cell-based, human; details: for GI50: Homo sapiens, HREC, 50% growth inhibitory concentration, 48 hours, alamarBlue, read-out: GI50 HREC
Protocol: (§2) Particularly, in a 96-well clear bottom black plate, cells (2,500 cells per well) were seeded in a total volume of 100 μL EGM-2. After 24 hours of incubation of the plate at 37° C. and 5% CO2, a DMSO solution of synthetic cremastranone (1) or SH-11052 (2) was added in the concentration range of 0.5 nM to 500 μM (final DMSO concentration=1%). The plate was then further incubated for 48 hours before adding 11.1 μL of ALAMARBLUE® reagent to each well. Four hours after the addition of ALAMARBLUE®, fluorescence readings with excitation and emission wavelengths of 560 nm and 590 nm, respectively, were taken and the data were analyzed in GraphPad Prism software (v. 6.0). Dose response curves were generated and the GI50 values were calculated using the following equation: Y=100/(1+10^(X−Log GI50)).
as §1

HUVECs = assay: ALAMARBLUE proliferation assay in HUVECs; type: cell-based, human; details: for GI50: Homo sapiens, HUVEC, 48 h, 50% growth inhibitory concentration, alamarBlue
Protocol: as §2, §1

[2] = test system: 92-1 uveal melanoma cells; assay: ALAMARBLUE proliferation assay in 92-1 uveal melanoma cells; type: cell-based; details: 50% growth inhibitory concentration, 48 hours, alamarBlue
Protocol: as §1

COc1ccc(CC2COc3cc(O)c(OC)c(O)c3C2=O)cc1O (racemic) [Compound 1, 5,7-dihydroxy-3-(3-hydroxy-4-methoxybenzyl)-6-methoxychroman-4-one]
GI50 [1]: 47 µM
GI50 (HRECs): 0.217 µM
in vitro anti-proliferative activity in HRECs (HRECs; result in words, FIGS. 6B, 6D, 14): demonstrated in vitro anti-proliferative activity
GI50 (HUVECs): 0.377 µM
in vitro anti-proliferative activity in HUVECs (HUVECs; result in words, FIGS. 6A, 6C): demonstrated in vitro anti-proliferative activity
GI50 [2]: 9.8 µM

COc1ccc(/C=C/C(=O)c2c(O)cc(OC)c(OC)c2OC)cc1OCc1ccccc1 [Compound 3a, (E)-3-(3′-benzyloxy-4′-methoxyphenyl)-1-(6-hydroxy-2,3,4-trimethoxyphenyl) prop-2-en-1-one]
GI50 [1]: > 100 µM
GI50 (HRECs): > 100 µM
GI50 (HUVECs): 94 µM
GI50 [2]: > 100 µM

COc1cc(O)c(C(=O)/C=C/c2ccccc2)c(OC)c1OC [Compound 3b]
GI50 [1]: > 100 µM
GI50 (HRECs): > 100 µM
GI50 (HUVECs): > 100 µM
GI50 [2]: > 100 µM

COc1ccc(CCC(=O)c2c(O)cc(OC)c(OC)c2OC)cc1O [Compound 4a, 1-(6-hydroxy-2,3,4-trimethoxyphenyl)-3-(3′-hydroxy-4′-methoxyphenyl) propan-1-one]
GI50 [1]: 68 µM
GI50 (HRECs): 68 µM
GI50 (HUVECs): 102 µM
GI50 [2]: > 100 µM

COc1ccc(CCC(=O)c2c(O)cc(OC)c(OC)c2OC)cc1OC [Compound 4c]
GI50 [1]: > 100 µM
GI50 (HRECs): 123 µM
GI50 (HUVECs): 74 µM
GI50 [2]: > 100 µM

COc1ccc(CC2(CO)COc3cc(OC)c(OC)c(OC)c3C2=O)cc1O (stereo not drawn) [Compound 5, 3-(3′-hydroxy-4′-methoxybenzyl)-3-(hydroxymethyl)-5,6,7-trimethoxychroman-4-one]
GI50 [1]: > 100 µM
GI50 (HRECs): > 100 µM
GI50 (HUVECs): > 100 µM
GI50 [2]: > 100 µM

COc1ccc(CC2COc3cc(OC)c(OC)c(OC)c3C2=O)cc1O (stereo not drawn) [Compound 6a, 3-(3′-hydroxy-4′-methoxybenzyl)-5,6,7-trimethoxychroman-4-one]
GI50 [1]: > 100 µM
GI50 (HRECs): > 100 µM
GI50 (HUVECs): > 100 µM
GI50 [2]: > 100 µM

COc1cc2c(c(OC)c1OC)C(=O)C(Cc1ccccc1)CO2 (stereo not drawn) [Compound 6b, 3-benzyl-5,6,7-trimethoxychroman-4-one]
GI50 [1]: > 100 µM
GI50 (HRECs): > 100 µM
GI50 (HUVECs): > 100 µM
GI50 [2]: > 100 µM

COC(=O)c1cc(CC2COc3cc(OC)c(OC)c(OC)c3C2=O)ccc1OC (stereo not drawn) [Compound 6d]
GI50 [1]: 40 µM
GI50 (HRECs): 13 µM
GI50 (HUVECs): 27 µM
GI50 [2]: > 250 µM

COc1cc2c(c(OC)c1OC)C(=O)C(Cc1ccc(O)c(O)c1)CO2 (stereo not drawn) [Compound 6e]
GI50 [1]: 98 µM
GI50 (HRECs): > 250 µM
GI50 (HUVECs): 77 µM
GI50 [2]: > 250 µM

COc1ccc(CC2COc3cc(OC)c(OC)c(OC)c3C2=O)cc1C(=O)O (stereo not drawn) [Compound 6f]
GI50 [1]: > 250 µM
GI50 (HRECs): 131 µM
GI50 (HUVECs): 92 µM
GI50 [2]: > 250 µM

C=C(Cc1ccc(OC)c(O)c1)C(=O)c1c(O)cc(OC)c(OC)c1OC [Compound 7, 1-(6-hydroxy-2,3,4-trimethoxyphenyl)-2-(3′-hydroxy-4′-methoxybenzyl)prop-2-en-1-one]
GI50 [1]: 8 µM
GI50 (HRECs): 10 µM
GI50 (HUVECs): 1.4 µM
GI50 [2]: 17 µM

COc1ccc(CC2COc3cc(OC)c(OC)c(O)c3C2=O)cc1O (stereo not drawn) [Compound 8a]
GI50 [1]: > 100 µM
GI50 (HRECs): > 100 µM
GI50 (HUVECs): 44 µM
GI50 [2]: > 100 µM

COc1cc2c(c(O)c1OC)C(=O)C(Cc1ccccc1)CO2 (stereo not drawn) [Compound 8b, 3-benzyl-5-hydroxy-6,7-dimethoxychroman-4-one]
GI50 [1]: > 100 µM
GI50 (HRECs): > 100 µM
GI50 (HUVECs): 40 µM
GI50 [2]: > 100 µM

COc1ccc(CC2COc3cc(OC)c(O)c(O)c3C2=O)cc1OC(=O)c1ccccc1 (stereo not drawn) [Compound 8c]
GI50 [1]: > 50 µM
GI50 (HRECs): > 100 µM
GI50 (HUVECs): > 100 µM
GI50 [2]: 51 µM

COc1ccc(CC2COc3cc(O)c(O)c(O)c3C2=O)cc1O (stereo not drawn) [Compound 8d, 5,6,7-trihydroxy-3-(3-hydroxy-4-methoxybenzyl)chroman-4-one]
GI50 [1]: > 500 µM
GI50 (HRECs): 135 µM
GI50 (HUVECs): 124 µM
GI50 [2]: > 500 µM

COc1ccc(Cc2coc3cc(OC)c(OC)c(OC)c3c2=O)cc1O [Compound 9a, 3-(3′-hydroxy-4′-methoxybenzyl)-5,6,7-trimethoxy-4H-chromen-4-one]
GI50 [1]: > 100 µM
GI50 (HRECs): > 100 µM
GI50 (HUVECs): > 100 µM
GI50 [2]: > 100 µM

COc1c(O)cc2occ(Cc3ccccc3)c(=O)c2c1O [Compound 9b, 3-benzyl-5,7-dihydroxy-6-methoxy-4H-chromen-4-one]
GI50 [1]: > 100 µM
GI50 (HRECs): > 100 µM
GI50 (HUVECs): > 100 µM
GI50 [2]: > 100 µM

COc1cc2c(c(OC)c1OC)C(=O)CCO2 [Compound 10a, 5,6,7-trimethoxychromanone]
GI50 [1]: > 500 µM
GI50 (HRECs): > 100 µM
GI50 (HUVECs): > 100 µM
GI50 [2]: > 500 µM

COc1ccc(/C=C2\COc3cc(OC)c(OC)c(OC)c3C2=O)cc1O [Compound 11a, (E)-3-(3′-hydroxy-4′-methoxybenzylidene)-5,6,7-trimethoxychroman-4-one]
GI50 [1]: 44 µM
GI50 (HRECs): 46 µM
GI50 (HUVECs): 8 µM
GI50 [2]: 0.22 µM

COc1ccc(/C=C2\COc3cc(OC)c(OC)c(OC)c3C2=O)cc1OCc1ccccc1 [Compound 11b, (E)-3-(3′-benzyloxy-4′-methoxybenzylidene)-5,6,7-trimethoxychroman-4-one]
GI50 [1]: 15 µM
GI50 (HRECs): 6 µM
GI50 (HUVECs): 4 µM

C=CCOc1cc(/C=C2\COc3cc(OC)c(OC)c(OC)c3C2=O)ccc1OC [Compound 11c, (E)-3-(3′-allyloxy-4′-methoxybenzylidene)-5,6,7-trimethoxychroman-4-one]
GI50 [1]: 3 µM
GI50 (HRECs): 4 µM
GI50 (HUVECs): 11 µM
GI50 [2]: 3.2 µM

COc1cc(/C=C2\COc3cc(OC)c(OC)c(OC)c3C2=O)ccc1OCc1ccccc1 [Compound 11d]
GI50 [1]: 39 µM
GI50 (HRECs): 53 µM
GI50 (HUVECs): 114 µM
GI50 [2]: 23 µM

COc1cc(/C=C2\COc3cc(OC)c(OC)c(OC)c3C2=O)ccc1O [Compound 11e]
GI50 [1]: 23 µM
GI50 (HRECs): 4 µM
GI50 (HUVECs): 6 µM
GI50 [2]: 55 µM

COc1cccc(/C=C2\COc3cc(OC)c(OC)c(OC)c3C2=O)n1 [Compound 11f]
GI50 [1]: 25 µM
GI50 (HRECs): 17 µM
GI50 (HUVECs): 16 µM
GI50 [2]: 25 µM

C#CCOc1cc(/C=C2\COc3cc(OC)c(OC)c(OC)c3C2=O)ccc1OC [Compound 11g]
GI50 [1]: 32 µM
GI50 (HRECs): 39 µM
GI50 (HUVECs): 21 µM
GI50 [2]: 310 µM

COc1ccc(/C=C2\COc3cc(OC)c(OC)c(OC)c3C2=O)cc1[N+](=O)[O-] [Compound 11h]
GI50 [1]: 44 µM
GI50 (HRECs): 4 µM
GI50 (HUVECs): 11 µM
GI50 [2]: 13 µM

COc1cc2c(c(OC)c1OC)C(=O)/C(=C/c1ccc(OCc3ccccc3)cc1)CO2 [Compound 11i]
GI50 [1]: 465 µM
GI50 (HRECs): > 500 µM
GI50 (HUVECs): 284 µM
GI50 [2]: 152 µM

COc1cc2c(c(OC)c1OC)C(=O)/C(=C/c1ccc([N+](=O)[O-])cc1)CO2 [Compound 11j]
GI50 [1]: 9 µM
GI50 (HRECs): 14 µM
GI50 (HUVECs): 6 µM
GI50 [2]: 23 µM
